This note sets out measurements from ChEMBL document CHEMBL5729637, “Beta-amino acid derivative, kinase inhibitor and pharmaceutical composition containing the same, and method for performing an in vivo related application that benefits from the inhibition of a kinase” (2023).

This assay addresses T1, Mitogen-activated protein kinase kinase kinase 19 (Homo sapiens, UniProt Q56UN5).
T1 sequence (Q56UN5 whole entry): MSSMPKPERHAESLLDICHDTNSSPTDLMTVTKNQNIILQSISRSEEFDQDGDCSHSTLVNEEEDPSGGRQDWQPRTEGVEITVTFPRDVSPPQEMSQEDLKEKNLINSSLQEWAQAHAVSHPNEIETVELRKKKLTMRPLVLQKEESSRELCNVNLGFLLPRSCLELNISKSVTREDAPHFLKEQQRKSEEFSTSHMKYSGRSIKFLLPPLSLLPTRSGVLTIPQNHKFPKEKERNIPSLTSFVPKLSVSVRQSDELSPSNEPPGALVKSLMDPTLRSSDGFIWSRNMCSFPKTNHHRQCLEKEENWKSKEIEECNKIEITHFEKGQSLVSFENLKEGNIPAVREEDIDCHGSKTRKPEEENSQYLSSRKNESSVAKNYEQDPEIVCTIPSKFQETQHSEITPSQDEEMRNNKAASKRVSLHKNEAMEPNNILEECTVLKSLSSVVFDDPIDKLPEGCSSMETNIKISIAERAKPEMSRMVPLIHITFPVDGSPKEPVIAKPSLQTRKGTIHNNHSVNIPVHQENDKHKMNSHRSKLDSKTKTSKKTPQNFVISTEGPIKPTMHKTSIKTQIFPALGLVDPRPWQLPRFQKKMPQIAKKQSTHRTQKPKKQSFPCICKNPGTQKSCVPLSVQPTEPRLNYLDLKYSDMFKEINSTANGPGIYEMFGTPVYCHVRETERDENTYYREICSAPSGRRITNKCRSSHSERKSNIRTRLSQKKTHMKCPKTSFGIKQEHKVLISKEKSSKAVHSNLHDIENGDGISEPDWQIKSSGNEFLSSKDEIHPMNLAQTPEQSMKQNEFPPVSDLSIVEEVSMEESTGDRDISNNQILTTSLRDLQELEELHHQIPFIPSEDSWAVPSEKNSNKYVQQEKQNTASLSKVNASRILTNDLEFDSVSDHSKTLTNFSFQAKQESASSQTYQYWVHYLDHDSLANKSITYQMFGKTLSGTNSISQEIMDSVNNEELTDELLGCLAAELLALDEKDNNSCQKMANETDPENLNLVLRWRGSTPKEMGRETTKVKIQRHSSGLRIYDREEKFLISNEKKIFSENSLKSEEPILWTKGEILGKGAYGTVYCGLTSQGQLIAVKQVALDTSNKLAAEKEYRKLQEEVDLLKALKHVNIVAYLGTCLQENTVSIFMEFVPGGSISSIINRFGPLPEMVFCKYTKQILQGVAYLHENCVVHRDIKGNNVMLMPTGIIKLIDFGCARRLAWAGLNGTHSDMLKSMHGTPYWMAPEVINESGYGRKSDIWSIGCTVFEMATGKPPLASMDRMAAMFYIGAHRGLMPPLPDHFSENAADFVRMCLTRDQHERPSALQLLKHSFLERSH
The experiment in a line: In Vitro Effect Assay: Table 5: The experimental procedure referred to the Z′-LYTE Screening Protocol and Assay Conditions provided by ThermoFisher Scientific. C-1. […] Peptide/Kinase Mixture was pre-diluted with Kinase Buffer to 2× working concentration. ATP solution was pre-diluted with Kinase Buffer (50 mM HEPES pH 7.5, 0.01% BRIJ-35, 10 mM MgCl2, 1 mM EGTA) to 4× working concentration. […], which contains 2 mg/mL Phosphatidyl Serine, 0.2 mg/mL DAG in 20 mM HEPES, pH 7.4 and 0.3% CHAPS, and was pre-diluted 10 fold with development buffer.C-2. Analytical Method. 1. 100 nL of the above diluted test compound and 2.4 μL of kinase buffer were added to a black 384-well plate (Corning, Cat. NO. 4514), then add 5 μL of the peptide/kinase mixture mentioned above was added thereto, and after that 2.5 μL of ATP solution was added thereto, and the culture plate was shaken for 30 seconds.2. Next, the culture plate was placed at room temperature and incubated for 60 minutes.3. After that 5 μL of the development reagent solution was added and the culture plate was shaken for 30 seconds in the dark, and then the data was read and analyzed with a fluorescence plate reader. […].

Broadly, the IC50 is the concentration that inhibits the measured activity by half. Turning to `NCC(C(=O)Nc1ccc(-c2cn[nH]c2)cc1)c1ccc(CO)cc1` (configuration not stated), the IC50 is greater than 1 µM.
With `NCC(Oc1ccc(C(F)(F)F)cc1)C(=O)Nc1ccc(-c2cn[nH]c2)cc1` (configuration not stated), the IC50 is greater than 10 µM.
